Measured values reported in ChEMBL document CHEMBL1201862, “PubChem BioAssay data set” (2004).
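Dose response: 5 concentrations. Exposure: 48 h. Format: 96-well plates. Endpoint: linear interpolation; highest concentration if not reached. Abbreviation: GI50, concentration required for 50% inhibition of growth.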 Active and inactive are the calls of the source. Rule as the data show it: active = GI50 up to about 1.1 µM and inactive = higher.

What was measured:
Assay in all cases: NCI-60 cell line screen, 48 h
786-0 = test system: 786-0
COLO 205 = test system: COLO 205
DU-145 = test system: DU-145
HCT-116 = test system: HCT-116
HCT-15 = test system: HCT-15
Hs-578T = test system: Hs-578T
K562 = test system: K562
M14 = test system: M14
MDA-MB-231 = test system: MDA-MB-231
Malme-3M = test system: Malme-3M
NCI-H460 = test system: NCI-H460
NCI-H522 = test system: NCI-H522
NCI/ADR-RES = test system: NCI/ADR-RES
OVCAR-5 = test system: OVCAR-5
RPMI-8226 = test system: RPMI-8226
SF-539 = test system: SF-539
SK-MEL-28 = test system: SK-MEL-28
SK-MEL-5 = test system: SK-MEL-5
SNB-19 = test system: SNB-19
T47D = test system: T47D

Compound | GI50 (786-0) | GI50 (COLO 205) | GI50 (DU-145) | GI50 (HCT-116) | GI50 (HCT-15) | GI50 (Hs-578T) | GI50 (K562) | GI50 (M14) | GI50 (MDA-MB-231) | GI50 (Malme-3M) | GI50 (NCI-H460) | GI50 (NCI-H522) | GI50 (NCI/ADR-RES) | GI50 (OVCAR-5) | GI50 (RPMI-8226) | GI50 (SF-539) | GI50 (SK-MEL-28) | GI50 (SK-MEL-5) | GI50 (SNB-19) | GI50 (T47D)
O=S(=O)(c1cc(Cl)ccc1Cl)n1ccnc1 | 54.2 µM (inactive) | 17.9 µM (inactive) | 35.4 µM (inactive) | 31.3 µM (inactive) | 24.7 µM | 51.4 µM (inactive) | 34 µM (inactive) | 30.3 µM (inactive) | 23.4 µM (inactive) | 31.8 µM (inactive) | 25.9 µM (inactive) | 27.4 µM (inactive) | 20.2 µM (inactive) | 35.5 µM (inactive) | 29 µM (inactive) | 17.4 µM (inactive) | > 100 µM (inactive) | 18.8 µM (inactive) | 70.8 µM (inactive) | 48.3 µM (inactive)
COc1cccc(/N=N/C(=N/NC(=O)c2cc(Cl)ccc2O)c2ccc(N(CCC#N)CCC#N)cc2C)c1 | 43.3 µM (inactive) | 6.21 µM (inactive) | 43.4 µM (inactive) | 18.8 µM (inactive) | 33.3 µM | 33.2 µM (inactive) | 21.3 µM (inactive) | 42.3 µM (inactive) | 35.1 µM (inactive) | 17.5 µM (inactive) | 32.7 µM (inactive) | 9.1 µM (inactive) | 49 µM (inactive) | > 100 µM (inactive) | 61.2 µM (inactive) | 18.4 µM (inactive) | – | 29.9 µM (inactive) | 53.5 µM (inactive) | 7.35 µM (inactive)
Cn1c(=O)c2nc(CCCc3ccc([N+](=O)[O-])cc3)[nH]c2n(C)c1=O | > 100 µM (inactive) | > 100 µM (inactive) | > 100 µM (inactive) | > 100 µM (inactive) | > 100 µM | > 100 µM (inactive) | 31.2 µM (inactive) | > 100 µM (inactive) | > 100 µM (inactive) | > 100 µM (inactive) | 91.2 µM (inactive) | > 100 µM (inactive) | > 100 µM (inactive) | > 100 µM (inactive) | > 100 µM (inactive) | 38.5 µM (inactive) | > 100 µM (inactive) | 59.3 µM (inactive) | > 100 µM (inactive) | > 100 µM (inactive)
c1ccc(C(OCCN2CC3CCC(C2)N3)c2ccccc2)cc1 | 41 µM (inactive) | 19 µM (inactive) | > 100 µM (inactive) | 40.4 µM (inactive) | 47.6 µM | 75.9 µM (inactive) | 43.8 µM (inactive) | 17.1 µM (inactive) | > 100 µM (inactive) | 16 µM (inactive) | 50.4 µM (inactive) | 35.2 µM (inactive) | > 100 µM (inactive) | > 100 µM (inactive) | 34.1 µM (inactive) | 82.4 µM (inactive) | 29.9 µM (inactive) | 18.5 µM (inactive) | > 100 µM (inactive) | 29.9 µM (inactive)
COc1ccc(P2(=S)Oc3ccc(C(c4ccccc4)(c4ccccc4)c4ccccc4)cc3O2)cc1 (stereo not drawn) | 18 µM (inactive) | 20.2 µM (inactive) | 20.5 µM (inactive) | 17.8 µM (inactive) | 19.3 µM | 21.8 µM (inactive) | 17.8 µM (inactive) | 14.1 µM (inactive) | 21.2 µM (inactive) | 20 µM (inactive) | 18.6 µM (inactive) | 16.7 µM (inactive) | 20.6 µM (inactive) | 19.5 µM (inactive) | 23 µM (inactive) | 19.9 µM (inactive) | 19.7 µM (inactive) | 21.6 µM (inactive) | 16 µM (inactive) | 13.7 µM (inactive)
CCC(C)(C)c1ccc(Oc2cccc(C(=O)O)c2)cc1 | 89.3 µM (inactive) | 38.8 µM (inactive) | 97.1 µM (inactive) | 41.5 µM (inactive) | 39.5 µM | 44 µM (inactive) | 32.6 µM (inactive) | 52.8 µM (inactive) | > 100 µM (inactive) | 44.6 µM (inactive) | 44.4 µM (inactive) | 28.2 µM (inactive) | 50.1 µM (inactive) | > 100 µM (inactive) | 28.8 µM (inactive) | 33.5 µM (inactive) | 81.8 µM (inactive) | 43.1 µM (inactive) | 85.5 µM (inactive) | 33.7 µM (inactive)
N=c1oc2ccc(Cl)cc2cc1C(=O)Nc1ccccc1 | 10.7 µM (inactive) | > 100 µM (inactive) | > 100 µM (inactive) | > 59 µM (inactive) | > 100 µM | 15.4 µM (inactive) | 27 µM (inactive) | > 100 µM (inactive) | 53.8 µM (inactive) | 6.5 µM (inactive) | > 100 µM (inactive) | 5.11 µM (inactive) | 17.3 µM (inactive) | > 100 µM (inactive) | > 100 µM (inactive) | > 65.9 µM (inactive) | > 100 µM (inactive) | > 100 µM (inactive) | > 62.5 µM (inactive) | 17.3 µM (inactive)
O=c1[nH]c2ccc([N+](=O)[O-])c(Cl)c2c2ccccc12 | 5.78 µM (inactive) | 5.18 µM (inactive) | 3.06 µM (inactive) | 0.313 µM (active) | 3.56 µM | 3.86 µM (inactive) | 0.634 µM (active) | 4.81 µM (inactive) | 8.07 µM (inactive) | 11.6 µM (inactive) | 1.87 µM (inactive) | 3.13 µM (inactive) | 4.98 µM (inactive) | 5.04 µM (inactive) | 0.586 µM (active) | 1.1 µM (active) | 11 µM (inactive) | 3.84 µM (inactive) | 1.91 µM (inactive) | 19.8 µM (inactive)
CC1=C(C#N)C(C#N)(C#N)C(NN(C)C)C1 (stereo not drawn) | 8.99 µM (inactive) | 3.83 µM (inactive) | 15.7 µM (inactive) | 11 µM (inactive) | 7.38 µM | > 100 µM (inactive) | 12.2 µM (inactive) | 29 µM (inactive) | 14.2 µM (inactive) | 17.7 µM (inactive) | – | 4.07 µM (inactive) | 23.8 µM (inactive) | 23.3 µM (inactive) | 10.9 µM (inactive) | 36.1 µM (inactive) | 23 µM (inactive) | 4.49 µM (inactive) | > 10 µM (inactive) | 6.15 µM (inactive)
O=[N+]([O-])C1=Cc2cc(Cl)ccc2OC1c1cccc2ccccc12 (stereo not drawn) | 0.396 µM (active) | 0.719 µM (active) | 1.91 µM (inactive) | 0.187 µM (active) | 0.37 µM | 0.692 µM (active) | 0.371 µM (active) | 1.23 µM (inactive) | 1.77 µM (inactive) | 1.57 µM (inactive) | 1.7 µM (inactive) | 1.27 µM (inactive) | 2.07 µM (inactive) | 1.99 µM (inactive) | 0.317 µM (active) | – | 1.34 µM (inactive) | 1.26 µM (inactive) | 1.65 µM (inactive) | 0.442 µM (active)
O=C1c2cc(Cl)ccc2N=C(NC2CCCC2)C2CSCN12 (stereo not drawn) | > 100 µM (inactive) | > 100 µM (inactive) | > 100 µM (inactive) | > 100 µM (inactive) | > 100 µM | 39.6 µM (inactive) | 59.2 µM (inactive) | 91.2 µM (inactive) | > 100 µM (inactive) | > 100 µM (inactive) | 47.4 µM (inactive) | 63.8 µM (inactive) | > 100 µM (inactive) | > 100 µM (inactive) | 87.5 µM (inactive) | – | > 100 µM (inactive) | 46.1 µM (inactive) | > 100 µM (inactive) | 42 µM (inactive)
COCC12CCC(OC)C34C5CC6(O)C(OC)C=C(C5C6OC(=O)c5ccccc5)C(C(OC)C13)C4N(C)C2 (stereo not drawn) | > 100 µM (inactive) | > 100 µM (inactive) | > 100 µM (inactive) | > 100 µM (inactive) | > 100 µM | 27.1 µM (inactive) | – | > 100 µM (inactive) | > 100 µM (inactive) | > 100 µM (inactive) | > 100 µM (inactive) | > 100 µM (inactive) | > 100 µM (inactive) | > 100 µM (inactive) | > 100 µM (inactive) | > 100 µM (inactive) | > 100 µM (inactive) | > 100 µM (inactive) | > 100 µM (inactive) | > 100 µM (inactive)
COc1cccc(C23CCCC(C2)NCC3Br)c1OC (stereo not drawn) | 81.3 µM (inactive) | 11.9 µM (inactive) | 53.8 µM (inactive) | 30.8 µM (inactive) | 40.9 µM | 19.7 µM (inactive) | 21.5 µM (inactive) | 34.4 µM (inactive) | > 100 µM (inactive) | > 100 µM (inactive) | 17.9 µM (inactive) | 10.2 µM (inactive) | 31.1 µM (inactive) | 56.2 µM (inactive) | 19.2 µM (inactive) | – | 48 µM (inactive) | 2.55 µM (inactive) | 42.3 µM (inactive) | 26.3 µM (inactive)
CC1CCc2sc3nc4n(c(=O)c3c2C1)CC(C)S4 (stereo not drawn) | 23.1 µM (inactive) | 18 µM (inactive) | 28.3 µM (inactive) | 23.3 µM (inactive) | 25.6 µM | 39.9 µM (inactive) | 24.7 µM (inactive) | 25.4 µM (inactive) | 20.4 µM (inactive) | 25.7 µM (inactive) | 22.5 µM (inactive) | 30.9 µM (inactive) | 30.8 µM (inactive) | 27 µM (inactive) | 30.8 µM (inactive) | – | 25.9 µM (inactive) | 18.9 µM (inactive) | 27.7 µM (inactive) | 22.4 µM (inactive)
